Assays:
barley = test: Test B preemergence/postemergence greenhouse plant response rating 0 to 10; assay type: in vivo, Hordeum vulgare; conditions: 0 to 10 scale
Outline: (§1)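 Test chemicals were sprayed onto freshly planted seed and, concurrently, onto young plants between the one and four leaf stage. After a twelve- to sixteen-day greenhouse period, each species was visually compared with untreated controls.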

barnyardgrass = test: as above; assay type: in vivo, Echinochloa crus-galli; conditions: 0 to 10 scale
Outline: as §1

corn = test: as above; assay type: in vivo, Zea mays; conditions: 0 to 10 scale
Outline: as §1

crabgrass [1] = test: as above; assay type: in vivo, Digitaria spp.; conditions: 0 to 10 scale
Outline: as §1

giant foxtail [2] = test: as above; assay type: in vivo, Setaria faberii; conditions: 0 to 10 scale
Outline: as §1

rape = test: as above; assay type: in vivo, Brassica napus; conditions: 0 to 10 scale
Outline: as §1

sorghum = test: as above; assay type: in vivo, Sorghum bicolor; conditions: 0 to 10 scale
Outline: as §1

wheat = test: as above; assay type: in vivo, Triticum aestivum; conditions: 0 to 10 scale
Outline: as §1

bedstraw = test: Test C preemergence/postemergence greenhouse plant response rating 0 to 100; assay type: in vivo, Galium aparine; conditions: POSTEMERGENCE; for Plant response rating, Bedstraw: 0 to 100 scale
Description: (§2) The compounds evaluated in this test were formulated in a non-phytoxic solvent and applied to the soil surface before plant seedlings emerged (preemergence application), to water that covered the soil surface (flood application), and to plants that were in the one-to-four leaf stage (postemergence application). A sandy loam soil was used for the preemergence and postemergence tests, while a silt loam soil was used in the flood test. Water depth was approximately 2.5 cm for the flood test and was maintained at this level for the duration of the test. Plant species in the preemergence and postemergence tests consisted of barley (Hordeum vulgare), bedstraw (Galium aparine), blackgrass (Alopecurus myosuroides), chickweed (Stellaria media), corn (Zea mays), cotton (Gossypium hirsutum), crabgrass (Digitaria sanguinalis), downy brome (Bromus tectorum), giant foxtail (Setaria faberii), lambsquarters (Chenopodium album), morningglory (Ipomoea hederacea), pigweed ([…]), rape (Brassica napus), ryegrass (Lolium multiflorum), sorghum (Sorghum bicolor), soybean (Glycine max), speedwell (Veronica persica), sugar beet (Beta vulgaris), velvetleaf (Abutilon theophrasti), wheat (Triticum aestivum), wild buckwheat (Polygonum convolvulus), and wild oat (Avena fatua). All plant species were planted one day before application of the compound for the preemergence portion-of this test. Plantings of these species were adjusted to produce plants of appropriate size for the post-emergence portion of the test. […] All plant species were grown using normal greenhouse practices. Visual evaluations of injury expressed on treated plants, when compared to untreated controls, were recorded approximately fourteen to twenty one days after application of the test compound. […] A dash (-) response means no test result.

chickweed = test: as above; assay type: in vivo, Stellaria media; conditions: POSTEMERGENCE; for Plant response rating, Chickweed: 0 to 100 scale
Description: as §2

crabgrass [3] = test: as above; assay type: in vivo, Digitaria sanguinalis; conditions: POSTEMERGENCE; for Plant response rating, Crabgrass: 0 to 100 scale
Description: as §2

downy brome = test: as above; assay type: in vivo, Bromus tectorum; conditions: POSTEMERGENCE; for Plant response rating Downy Brome: 0 to 100 scale
Description: as §2

giant foxtail [4] = test: as above; assay type: in vivo, Setaria faberii; conditions: POSTEMERGENCE; for Plant response rating, Giant foxtail: 0 to 100 scale
Description: as §2

wild buckwheat = test: as above; assay type: in vivo, Polygonum convolvulus; conditions: POSTEMERGENCE; for Plant response rating, Wild buckwheat: 0 to 100 scale
Description: as §2

wild oat = test: as above; assay type: in vivo, Avena fatua; conditions: POSTEMERGENCE; for Plant response rating, Wild oat: 0 to 100 scale
Description: as §2

rice = test: Test C flood test plant response rating 0 to 100; assay type: in vivo, Oryza sativa; conditions: for Plant response rating (0 to 100), Rice Japonica: under POSTEMERGENCE head (flood test species); for Plant response rating Rice Japonica: flood test species listed under POSTEMERGENCE, 0 to 100 scale
Description: as §2

duck salad = test: Test C flood test plant response rating 0 to 100; assay type: in vivo, Heteranthera limosa; conditions: for Plant response rating (0 to 100), Duck salad: under POSTEMERGENCE head (flood test species); for Plant response rating Duck salad: flood test species listed under POSTEMERGENCE, 0 to 100 scale
Description: as §2

## C#CC(C)Oc1cc(-c2nn3c(c2Cl)CCCC3)c(F)cc1Cl (centres unmarked) [Compound 36]
barley; POSTEMERGENCE, Rate 50 g/ha
  Plant response rating, Barley: 5
barley; POSTEMERGENCE, Rate 200 g/ha
  Plant response rating, Barley: 6
barley; PREEMERGENCE, Rate 50 g/ha
  Plant response rating, Barley: 0
barley; Rate 200 g/ha, PREEMERGENCE
  Plant response rating, Barley: 2
barnyardgrass; POSTEMERGENCE, Rate 50 g/ha
  Plant response rating, Barnyardgrass: 6
barnyardgrass; POSTEMERGENCE, Rate 200 g/ha
  Plant response rating, Barnyardgrass: 9
barnyardgrass; PREEMERGENCE, Rate 50 g/ha
  Plant response rating, Barnyardgrass: 3
barnyardgrass; Rate 200 g/ha, PREEMERGENCE
  Plant response rating, Barnyardgrass: 5
corn; POSTEMERGENCE, Rate 50 g/ha
  Plant response rating, Corn: 5
corn; POSTEMERGENCE, Rate 200 g/ha
  Plant response rating, Corn: 6
corn; PREEMERGENCE, Rate 50 g/ha
  Plant response rating, Corn: 0
corn; Rate 200 g/ha, PREEMERGENCE
  Plant response rating, Corn: 4
Crabgrass [1]; POSTEMERGENCE, Rate 50 g/ha
  Plant response rating, Crabgrass: 5
Crabgrass [1]; POSTEMERGENCE, Rate 200 g/ha
  Plant response rating, Crabgrass: 7
Crabgrass [1]; PREEMERGENCE, Rate 50 g/ha
  Plant response rating, Crabgrass: 5
Crabgrass [1]; Rate 200 g/ha, PREEMERGENCE
  Plant response rating, Crabgrass: 9
Giant foxtail [2]; POSTEMERGENCE, Rate 50 g/ha
  Plant response rating, Giant foxtail: 6
Giant foxtail [2]; PREEMERGENCE, Rate 50 g/ha
  Plant response rating, Giant foxtail: 5
Giant foxtail [2]; Rate 200 g/ha, POSTEMERGENCE
  Plant response rating, Giant foxtail: 7
Giant foxtail [2]; Rate 200 g/ha, PREEMERGENCE
  Plant response rating, Giant foxtail: 9
rape; POSTEMERGENCE, Rate 50 g/ha
  Plant response rating, Rape: 10
rape; PREEMERGENCE, Rate 50 g/ha
  Plant response rating, Rape: 5
rape; Rate 200 g/ha, POSTEMERGENCE
  Plant response rating, Rape: 10
rape; Rate 200 g/ha, PREEMERGENCE
  Plant response rating, Rape: 8
sorghum; POSTEMERGENCE, Rate 50 g/ha
  Plant response rating, Sorghum: 5
sorghum; PREEMERGENCE, Rate 50 g/ha
  Plant response rating, Sorghum: 0
sorghum; Rate 200 g/ha, POSTEMERGENCE
  Plant response rating, Sorghum: 6
sorghum; Rate 200 g/ha, PREEMERGENCE
  Plant response rating, Sorghum: 1
wheat; POSTEMERGENCE, Rate 50 g/ha
  Plant response rating, Wheat: 5
wheat; PREEMERGENCE, Rate 50 g/ha
  Plant response rating, Wheat: 5
wheat; Rate 200 g/ha, POSTEMERGENCE
  Plant response rating, Wheat: 6
wheat; Rate 200 g/ha, PREEMERGENCE
  Plant response rating, Wheat: 5
bedstraw; 62 g/ha
  Plant response rating, Bedstraw: 100
bedstraw; 125 g/ha
  Plant response rating, Bedstraw: 100
bedstraw; Rate 16 g/ha
  Plant response rating (0 to 100), Bedstraw: 90
bedstraw; Rate 31 g/ha
  Plant response rating (0 to 100), Bedstraw: 100
chickweed; 62 g/ha
  Plant response rating, Chickweed: 80
chickweed; 125 g/ha
  Plant response rating, Chickweed: 100
chickweed; Rate 16 g/ha
  Plant response rating (0 to 100), Chickweed: 70
chickweed; Rate 31 g/ha
  Plant response rating (0 to 100), Chickweed: 80
Crabgrass [3]; 62 g/ha
  Plant response rating, Crabgrass: 50
Crabgrass [3]; 125 g/ha
  Plant response rating, Crabgrass: 60
Crabgrass [3]; Rate 16 g/ha
  Plant response rating (0 to 100), Crabgrass: 20
Crabgrass [3]; Rate 31 g/ha
  Plant response rating (0 to 100), Crabgrass: 30
Downy brome; 62 g/ha
  Plant response rating Downy Brome: 40
Downy brome; 125 g/ha
  Plant response rating Downy Brome: 50
Downy brome; Rate 16 g/ha
  Plant response rating (0 to 100), Downy Brome: 20
Downy brome; Rate 31 g/ha
  Plant response rating (0 to 100), Downy Brome: 30
Giant foxtail [4]; 62 g/ha
  Plant response rating, Giant foxtail: 75
Giant foxtail [4]; 125 g/ha
  Plant response rating, Giant foxtail: 85
Giant foxtail [4]; Rate 16 g/ha
  Plant response rating (0 to 100), Giant foxtail: 50
Giant foxtail [4]; Rate 31 g/ha
  Plant response rating (0 to 100), Giant foxtail: 60
Wild buckwheat; 62 g/ha
  Plant response rating, Wild buckwheat: 100
Wild buckwheat; 125 g/ha
  Plant response rating, Wild buckwheat: 100
Wild buckwheat; Rate 16 g/ha
  Plant response rating (0 to 100), Wild buckwheat: 70
Wild buckwheat; Rate 31 g/ha
  Plant response rating (0 to 100), Wild buckwheat: 70
Wild oat; 62 g/ha
  Plant response rating, Wild oat: 30
Wild oat; 125 g/ha
  Plant response rating, Wild oat: 50
Wild oat; Rate 16 g/ha
  Plant response rating (0 to 100), Wild oat: 10
Wild oat; Rate 31 g/ha
  Plant response rating (0 to 100), Wild oat: 20
rice; Rate 16 g/ha
  Plant response rating (0 to 100), Rice Japonica: 20
rice; Rate 31 g/ha
  Plant response rating (0 to 100), Rice Japonica: 35
rice; 62 g/ha
  Plant response rating Rice Japonica: 40
rice; 125 g/ha
  Plant response rating Rice Japonica: 50
Duck salad; Rate 16 g/ha
  Plant response rating (0 to 100), Duck salad: 0
Duck salad; Rate 31 g/ha
  Plant response rating (0 to 100), Duck salad: 0
Duck salad; 62 g/ha
  Plant response rating Duck salad: 30
Duck salad; 125 g/ha
  Plant response rating Duck salad: 50
